IC50 and solubility data for six compounds are collected here from patent US9034855B2, “Substituted phenylacetate and phenylpropane amides and use thereof” (Bayer Intellectual Property GmbH, priority 2010, dated 2015).

In brackets after ≈: the same amount, converted by molar mass.

The target of one data set is T1, human V1a receptor (Homo sapiens, UniProt P37288).
T1 construct: expressed in transfected cells; host or cells: CHO K1 (ATCC), constitutively expressing modified aequorin
The data set can be described thus: Cellular in vitro assay for determining the vasopressin receptor activity (aequorin luminescence, recombinant CHO cells), human V1a. The format is cell-based. Conditions: CHO cells expressing aequorin, transfected with human V1a receptor; agonist [Arg8]-vasopressin; read-out: IC50 hV1a. The text has this: (§1) B-1. Cellular In Vitro Assay for Determining the Vasopressin Receptor Activity
(§2) The identification of agonists and antagonists of the V1a and V2 vasopressin receptors from humans and rats and also the quantification of the activity of the substances described here takes place using recombinant cell lines. These cells derive originally from a hamster's ovary epithelial cell (Chinese Hamster Ovary, CHO K1, ATCC: American Type Culture Collection, Manassas, Va. 20108, USA). The test cell lines constitutively express a modified form of the calcium-sensitive photoprotein aequorin, which, after reconstitution with the cofactor coelenterazine, emits light when there are increases in the free calcium concentration (Rizzuto R., Simpson A. W., Brini M., Pozzan T.; Nature 358 (1992) 325-327). In addition, the cells are stably transfected with the human or rat V1a or V2 receptors. In the case of the Gs-coupling V2 receptors, the cells are stably transfected with a further gene, which codes for the promiscuous Gα16 protein (Amatruda T. T., Steele D. A., Slepak V. Z., Simon M A., Proc. Na. Acad. Sci. USA 88 (1991), 5587-5591), either independently or as a fusion gene. The resulting vasopressin receptor test cells react to stimulation of the recombinantly expressed vasopressin receptors by intracellular release of calcium ions, which can be quantified by the resulting aequorin luminescence using a suitable luminometer (Milligan G., Marshall F., Rees S., Trends in Pharmaco. Sci. 17 (1996) 235-237).
(§3) On the day before the assay, the cells are plated out in culture medium (DMEM, 10% FCS, 2 mM glutamine, 10 mM HEPES) in 384-well microtiter plates and kept in a cell incubator (96% atmospheric humidity, 5% v/v carbon dioxide, 37° C.). On the day of the assay, the culture medium is replaced by a Tyrode solution (140 mM sodium chloride, 5 mM potassium chloride, 1 mM magnesium chloride, 2 mM calcium chloride, 20 mM glucose, 20 mM HEPES), which additionally contains the cofactor coelenterazine (50 μM), and the microtiter plate is then incubated for a further 3-4 hours. The test substances in various concentrations are placed for 10 to 20 minutes in the wells of the microtiter plate before the agonist [Arg8]-vasopressin is added, and the resulting light signal is measured immediately in the luminometer. The IC50 values are calculated using the GraphPad PRISM computer program (Version 3.02).
(§4) Table A below lists representative IC50 values for the compounds according to the invention transfected with the human V1a or V2 receptor: […]

The target of the next data set is T2, human V2 receptor (Homo sapiens, UniProt P30518).
T2 construct: expressed in transfected cells; host or cells: CHO K1 (ATCC), constitutively expressing modified aequorin, co-transfected with promiscuous G-alpha-16
The data set can be described thus: Cellular in vitro assay for determining the vasopressin receptor activity (aequorin luminescence, recombinant CHO cells), human V2. The format is cell-based. Conditions: CHO cells expressing aequorin and Gα16, transfected with human V2 receptor; agonist [Arg8]-vasopressin; read-out: IC50 hV2.
Excerpt: as §1, §2, §3, §4

Data set [1] in a line: Determination of the solubility. The format is physicochemical. Conditions: aqueous buffer, kinetic from dmso stock; PBS buffer pH 6.5, 20° C., 24 hours shaking, from DMSO solution. Here is the method:
B-6. Determination of the Solubility
Reagents Required: • PBS buffer pH 6.5: 90.00 g of NaCl p.a. (for example from Merck, Art. No. 1.06404.1000), 13.61 g of KH2PO4 p.a. (for example from Merck, Art. No. 1.04873.1000) and 83.35 g of 1N aqueous sodium hydroxide solution (for example from Bernd Kraft GmbH, Art. No. 01030.4000) are weighed into a 1 liter measuring flask, the flask is filled with distilled water to 1 liter and the mixture is stirred for 1 hour. Using 1N hydrochloric acid (for example from Merck, Art. No. 1.09057.1000) the pH is then adjusted to 6.5. • PEG/water solution (30:70 v/v): 30 ml of polyethylene glycol 400 (for example from Merck, Art. No. 8.17003.1000) and 70 ml of distilled water are homogenized in a 100 ml measuring flask. • PEG/PBS buffer pH 6.5 (80:20 v/v): 80 ml of polyethylene glycol 400 (for example from Merck, Art. No. 8.17003.1000) and 20 ml of PBS buffer pH 6.5 are homogenized in a 100 ml measuring flask. • Dimethyl sulphoxide (for example from Baker, Art. No. 7157.2500) • Distilled water.
Preparation of the Starting Solution (Original Solution):
At least 4 mg of the test substance are weighed accurately into a wide-necked 10 mm screw V vial (from Glastechnik Gräfenroda GmbH, Art. No. 8004-WM-H/V150 with fitting screw cap and septum, in a pipetting robot DMSO is added to a concentration of 50 mg/ml and the mixture is shaken for 10 minutes.
Preparation of the Calibration Solutions:
Preparation of the starting solution for calibration solutions (stock solution): With the aid of a pipetting robot, 10 μl of the original solution are transferred into a microtiter plate and made up with DMSO to a concentration of 600 μg/ml. The sample is shaken until everything has gone into solution.
Calibration solution 1 (20 μg/ml): 1000 μl of DMSO are added to 34.4 μl of the stock solution, and the mixture is homogenized.
Calibration solution 2 (2.5 μg/ml): 700 μl of DMSO are added to 100 μl of calibration solution 1, and the mixture is homogenized.
Preparation of the Sample Solutions:
Sample solution for solubilities of up to 5 g/liter in PBS buffer pH 6.5: 10 μl of the original solution are transferred into a microtiter plate, and 1000 μl of PBS buffer pH 6.5 are added.
The sample solutions prepared in this manner are shaken at 1400 rpm in a temperature-adjustable shaker (for example Eppendorf Thermomixer comfort Art. No. 5355 000.011 with interchangeable block Art. No. 5362.000.019) at 20° C. for 24 hours. In each case 180 μl are taken from these solutions and transferred into Beckman Polyallomer Centrifuge Tubes (Art. No. 343621). These solutions are centrifuged at about 223 000×g for one hour (for example Beckman Optima L-90K Ultracentrifuge with Type 42.2 Ti Rotor at 42 000 rpm). From each of the sample solutions, 100 μl of the supernatant are removed and diluted 1:5 and 1:100 with DMSO. From each dilution, a sample is transferred into a vessel suitable for HPLC analysis.
The samples are analysed by RP-HPLC. Quantification is carried out using a two-point calibration curve of the test compound in DMSO. The solubility is expressed in mg/liter. Analysis sequence: 1) calibration solution […]; 2) calibration solution 20 μg/ml; 3) sample solution 1:5; 4) sample solution 1:100.
Agilent 1100 with DAD (G1315A), quat. pump (G1311A), autosampler CTC HTS PAL, degasser (G1322A) and column thermostat (G1316A); column: Phenomenex Gemini C18, 50 mm×2 mm, 5μ; temperature: 40° C.; mobile phase A: water/phosphoric acid pH 2; mobile phase B: acetonitrile; flow rate: 0.7 ml/min; gradient: 0-0.5 min 85% A, 15% B; ramp: 0.5-3 min 10% A, 90% B; 3-3.5 min 10% A, 90% B; ramp: 3.5-4 min 85% A, 15% B; 4-5 min 85% A, 15% B. […]

T2 sequence (P30518 whole entry): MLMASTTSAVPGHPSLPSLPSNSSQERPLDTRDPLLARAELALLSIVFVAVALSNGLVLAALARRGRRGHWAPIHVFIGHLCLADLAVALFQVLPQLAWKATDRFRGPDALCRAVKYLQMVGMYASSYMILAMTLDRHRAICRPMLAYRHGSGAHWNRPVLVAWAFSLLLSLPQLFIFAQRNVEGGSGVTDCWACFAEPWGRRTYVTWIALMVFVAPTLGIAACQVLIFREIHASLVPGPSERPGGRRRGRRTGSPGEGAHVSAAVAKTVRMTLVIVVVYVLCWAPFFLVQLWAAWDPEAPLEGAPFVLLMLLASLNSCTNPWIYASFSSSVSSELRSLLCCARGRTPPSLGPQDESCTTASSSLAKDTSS
T1 sequence (P37288 whole entry): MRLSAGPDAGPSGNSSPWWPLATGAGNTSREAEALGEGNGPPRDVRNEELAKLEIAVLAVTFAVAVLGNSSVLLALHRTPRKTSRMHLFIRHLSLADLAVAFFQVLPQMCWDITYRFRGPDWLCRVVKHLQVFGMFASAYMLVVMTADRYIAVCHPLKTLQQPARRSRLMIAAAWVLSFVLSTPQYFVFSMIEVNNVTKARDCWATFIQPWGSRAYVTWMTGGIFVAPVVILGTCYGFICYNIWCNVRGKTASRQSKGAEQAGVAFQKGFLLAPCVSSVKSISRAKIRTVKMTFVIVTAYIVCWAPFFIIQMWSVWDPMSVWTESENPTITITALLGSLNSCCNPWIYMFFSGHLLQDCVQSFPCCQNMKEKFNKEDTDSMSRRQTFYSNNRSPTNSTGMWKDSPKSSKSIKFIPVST

On to `O=C(C[C@H](NC(=O)Cn1nc(-c2ccc(Cl)cc2)n(C[C@H](O)C(F)(F)F)c1=O)c1cccc(C(F)(F)F)c1)NCCO` [Example 54, (3S)-3-[({3-(4-Chlorophenyl)-5-oxo-4-[(2S)-3,3,3-trifluoro-2-hydroxypropyl]-4,5-dihydro-1H-1,2,4-triazol-1-yl}acetyl)amino]-N-(2-hydroxyethyl)-3-[3-(trifluoromethyl)phenyl]propanamide], for which the IC50 on human V1a receptor was determined as 3.8 nM; on human V2 receptor, 2.6 nM. Moreover, in data set [1], the solubility at 24 h amounted to 400 µg/mL (≈ 641 µM).
Taken in the same sequence, the figures for `O=C(Cn1nc(-c2ccc(Cl)cc2)n(C2CC2)c1=O)NC(C(=O)NC1(C(=O)O)CC1)c1cccc(C(F)(F)F)c1` (racemic) [Example 6, 1-({({[3-(4-Chlorophenyl)-4-cyclopropyl-5-oxo-4,5-dihydro-1H-1,2,4-triazol-1-yl]acetyl}-amino)[3-(trifluoromethyl)phenyl}acetyl]amino)cyclopropanecarboxylic acid] were 47 nM, 324 nM and 340 µg/mL (≈ 588 µM).
As to `O=C(Cn1nc(-c2ccc(Cl)cc2)n(C[C@H](O)C(F)(F)F)c1=O)NC(C(=O)NCCO)c1cccc(OC(F)(F)F)c1` (stereo partly drawn) [Example 52, 2-[({3-(4-Chlorophenyl)-5-oxo-4-[(2S)-3,3,3-trifluoro-2-hydroxypropyl]-4,5-dihydro-1H-1,2,4-triazol-1-yl}acetyl)amino]-N-(2-hydroxyethyl)-2-[3-(trifluoromethoxy)phenyl]acetamide], the IC50 at human V1a receptor came out at 9.7 nM; on human V2 receptor, 42 nM. The same compound returned a solubility at 24 h in data set [1] of 100 µg/mL (≈ 160 µM).
For `CC(C)(NC(=O)C(NC(=O)Cn1nc(-c2ccc(Cl)cc2)n(/C=C/C(F)(F)F)c1=O)c1ccccc1C(F)(F)F)C(N)=O` (racemic) [Example 31, N^2-{[({3-(4-Chlorophenyl)-5-oxo-4-[(1E)-3,3,3-trifluoroprop-1-en-1-yl]-4,5-dihydro-1H-1,2,4-triazol-1-yl}acetyl)amino][2-(trifluoromethyl)phenyl]acetyl}-2-methylalaninamide] the same measures were 7.8 nM, 1180 nM and 110 µg/mL (≈ 174 µM).
Taken in the same sequence, the figures for `CC(C)(NC(=O)[C@](C)(NC(=O)Cn1nc(-c2ccc(Cl)cc2)n(C[C@H](O)C(F)(F)F)c1=O)c1cccc(C(F)(F)F)c1)C(=O)O` [Example 21, N-{(2R)-2-[({3-(4-Chlorophenyl)-5-oxo-4-[(2S)-3,3,3-trifluoro-2-hydroxypropyl]-4,5-dihydro-1H-1,2,4-triazol-1-yl}acetyl)amino]-2-[3-(trifluoromethyl)phenyl]propanoyl}-2-methylalanine] were 1 nM, 0.8 nM and 360 µg/mL (≈ 541 µM).
Taken in the same sequence, the figures for `COCCn1c(-c2ccc(Cl)s2)nn(CC(=O)NC(C(=O)NC(C)(C)C(=O)O)c2cccc(C(F)(F)F)c2)c1=O` (racemic) [Example 10, N-{({[3-(5-Chloro-2-thienyl)-4-(2-methoxyethyl)-5-oxo-4,5-dihydro-1H-1,2,4-triazol-1-yl]acetyl}-amino) [3-(trifluoromethyl)phenyl}acetyl]-2-methylalanine] were 150 nM, 960 nM and 360 µg/mL (≈ 596 µM).

One may read the IC50 as the point on the concentration scale where inhibition reaches its midpoint. Usually solubility stands for the dissolved amount per volume that the medium holds.
